Source: US10130590B2, “Methods of treating cancer with atovaquone-related compounds” (DANA-FARBER CANCER INSTITUTE, INC., priority 2013, dated 2018)

Assays:
STAT1 [1] = assay: STAT1 phosphorylation in cancer cells; assay type: cell-based
Source text: It has been discovered, using an unbiased gene expression-based approach, that atovaquone is a novel STAT3 inhibitor. Atovaquone acts by diminishing cell-surface gp130 expression and STAT3 tyrosine phosphorylation. As a consequence, critical STAT3 target genes mediating survival and proliferation are reduced, such as survivin, Bcl-2 family members, and cyclin D1. Moreover, atovaquone inhibits the viability of STAT3-dependent cancer cells by inducing apoptosis and disrupting cell cycle progression. […] Since STAT5 activation is crucial to cancer pathogenesis caused by JAK2-V617F, the additional inhibition of STAT5 in this context is a desirable effect of atovaquone. […] Because the effects of atovaquone on STAT activation are restricted to gp130-dependent signaling, atovaquone inhibits STATs more selectively than direct pharmacological JAK inhibition. […] At the same time, the actions of atovaquone extend to all cytokines that signal through gp130, including LIF and OSM, thereby exerting broader effects than therapies specifically directed against IL-6 or IL-6 receptor, such as monoclonal antibodies. This is also advantageous, since oncogenic effects of LIF and OSM have been reported.

STAT1 [2] = assay: STAT1 cell-based luciferase reporter system
Description: To determine if atovaquone inhibits STAT3, it was tested in a cell-based reporter system of STAT3 transcriptional activity (Nelson E A, et al. (2008) Nifuroxazide inhibits survival of multiple myeloma cells by directly inhibiting STAT3. Blood 112(13):5095-5102). These cells lack basal STAT3 activation; upon IL-6 treatment, STAT3 becomes activated and drives transcription of a STAT3-dependent luciferase reporter gene. The STAT3-luc reporter cells were pre-treated with drug for 1 hour, then stimulated with IL-6 (10 ng/ml) for 5 hr. Activity of firefly luciferase was measured and normalized by cell viability (Cell Titer Glo). […] To determine if atovaquone inhibits STAT3 activity specifically over other transcription factors, it was tested in cell-based reporter systems for STAT1 and STAT5, two other STAT family members, and NF-κB, an unrelated transcription factor.

[3] = tested on: non-malignant peripheral blood mononuclear cells (PBMC); assay: Cell viability (Cell Titer Glo), PBMC; assay type: cell-based; settings: 72 hours, healthy donors
Description: Mouse embryonic fibroblasts (MEFs) were cultured in DMEM+10% FBS. TSC2-null (see, Zhang et al. J Clin Invest. 2003; 112(8):1223-1233) and REDD1-null (see, Sofer et al. Mol. Cell. Biol. July 2005 vol. 25 no. 14 5834-5845) MEFs, along with MEFs from the littermate controls, were kind gifts from Dr. John Blenis and Dr. Leif Ellisen, respectively. HEL (see, Iwama et al. Mol. Cell. Biol. June 1999 vol. 19 no. 6 3940-3950) was a kind gift of Dr. Daniel G. Tenen and grown in RPMI-1640+10% FBS. OCI-AML2 and OCI-AML3 (see, Grunberger et al. Blood Dec. 1, 2003 vol. 102 no. 12 4153-4158), and MOLM-13 (German Collection of Microorganisms and Cell Cultures (DSMZ, Braunschweig, Germany)) were kind gifts of Dr. James D. Griffin and grown in RPMI-1640+10% FBS. MM.1S (ATCC) was a kind gift of Dr. Kenneth C. Anderson and grown in RPMI-1640+10% FBS. SET2 (see, Koppikar et al. Nature 489, 155-159 (6 Sep. 2012)) was a kind gift of Dr. Ross L. Levine and grown in RPMI-1640+10% FBS. HL60 (ATCC) was a kind gift of Dr. James D. Griffin and grown in RPMI-1640+10% FBS. […] Molecular Pharmacology 78(5):903-908; and Walker S R, et al. (2009) Reciprocal effects of STAT5 and STAT3 in breast cancer. Molecular Cancer Research: MCR 7(6):966-976). Peripheral blood mononuclear cells (PBMCs) were isolated from healthy donors by Ficoll density gradient centrifugation and maintained in RPMI-1640+10% FBS. […]

O=C1C(O)=C([C@H]2CC[C@H](c3ccc(Cl)cc3)CC2)C(=O)c2ccccc21 [atovaquone, trans-2-[4-(4-chlorophenyl)cyclohexyl]-3-hydroxy-1,4-naphthalenedione]
mutant JAK2-dependent phosphorylation of STAT1 (STAT1 [1]; HEL cells): inhibited | IL-6-dependent phosphorylation of STAT1 (STAT1 [1]; INA-6 and U266 cells): inhibited IL-6-dependent phosphorylation of STAT1 | STAT1 transcription factor activity (STAT1 [2]): modestly affected at the higher doses | viability of PBMC [3]: relatively preserved
